Measurements: patent US20120083525A1, “COMPOSITION FOR PREVENTING OR TREATING OBESITY-RELATED DISEASES MEDIATED BY THE ACTIVATION OF AMPK AND INCLUDING 2,5-BIS-ARYL-3,4-DIMETHYLTETRAHYDROFURAN LIGNANS AS ACTIVE INGREDIENTS” (Amorepacific Corporation, priority 2009, published 2012)

System: high fat diet-induced obese model
Experiment: Anti-obesity effect in diet-induced obese (DIO) model, body weight change
Conditions: 100 mg/kg/day oral
Method: For the oral administration, the substances were dissolved in a 5% aqueous solution of methyl cellulose (Sigma Co., USA). 7-week-old male C57BL/6J mice were prepared for test, with 10 heads per group. After an accommodation period of 1 week, the mice were kept in individual cages and maintained with 12/12-hr light-dark cycles (lighting from 7 am to 5 pm). […] The corresponding substance was orally administered once a day at regular hours (10 am) for 8 weeks. Body weight was measured once a week (11 am). After 8 weeks of administration, the body weight of the test groups and the control group was analyzed.

SMILES: COc1cc(C[C@H](C)[C@H](C)Cc2ccc3c(c2)OCO3)ccc1O [Macelignan, macelignan]
- Body weight change (g) after oral administration, 14 days (14 days): 4.00 g
- Body weight change (g) after oral administration, 21 days (21 days): 5.31 g
- Body weight change (g) after oral administration, 28 days (28 days): 6.52 g
- Body weight change (g) after oral administration, 35 days (35 days): 8.91 g
- Body weight change (g) after oral administration, 42 days (42 days): 9.70 g
- Body weight change (g) after oral administration, 49 days (49 days): 10.63 g
